Assay results taken from PubChem BioAssay AID248 (DTP/NCI, 2004).
Several values for one entry are separate records, joined by “and”; a condition that tells them apart may be missing. Identical values can stand only once. Toxic doses and inconclusive results are not listed. No stated cut-off is given here; in the data, active means T/C of 150% or more; inactive means T/C below 125%.

System: L1210 leukemia ip in BDF1 mice, survival T/C
Assay: NCI In Vivo Anticancer Drug Screen. Data for tumor model L1210 Leukemia (intraperitoneal) in B6D2F1 (BDF1) mice
Settings: endpoint: mean survival time, higher = longer survival
Procedure, shortened: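 Antitumor effect is assessed in tumor-bearing animals. Survival in the compound arm is compared with a vehicle-dosed control arm and expressed as their quotient.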

[1] = dose: 100.0 mg/kg/injection, schedule: Q01DX001 (ip), vehicle: saline
[2] = dose: 200.0 mg/kg/injection, schedule: Q01DX001 (ip), vehicle: saline
[3] = dose: 100.0 mg/kg/injection, schedule: Q01DX001 (ip), vehicle: carboxymethylcellulose (CMC)
[4] = dose: 200.0 mg/kg/injection, schedule: Q01DX001 (ip), vehicle: carboxymethylcellulose (CMC)
[5] = dose: 400.0 mg/kg/injection, schedule: Q01DX001 (ip), vehicle: carboxymethylcellulose (CMC)
[6] = dose: 25.0 mg/kg/injection, schedule: Q01DX009 (ip), vehicle: saline with Tween-80
[7] = dose: 50.0 mg/kg/injection, schedule: Q01DX009 (ip), vehicle: saline with Tween-80
[8] = dose: 100.0 mg/kg/injection, schedule: Q01DX009 (ip), vehicle: saline with Tween-80
[9] = dose: 100.0 mg/kg/injection, schedule: Q04DX003 (ip), vehicle: saline with Tween-80
[10] = dose: 200.0 mg/kg/injection, schedule: Q04DX003 (ip), vehicle: saline with Tween-80
[11] = dose: 100.0 mg/kg/injection, schedule: Q01DX009 (ip), vehicle: Klucel (hydroxypropylcellulose) (HPC)
[12] = dose: 200.0 mg/kg/injection, schedule: Q01DX009 (ip), vehicle: Klucel (hydroxypropylcellulose) (HPC)
[13] = dose: 50.0 mg/kg/injection, schedule: Q04DX002 (ip), vehicle: saline with Tween-80
[14] = dose: 100.0 mg/kg/injection, schedule: Q04DX002 (ip), vehicle: saline with Tween-80
[15] = dose: 200.0 mg/kg/injection, schedule: Q04DX002 (ip), vehicle: saline with Tween-80
[16] = dose: 200.0 mg/kg/injection, schedule: Q01DX009 (ip), vehicle: saline with Tween-80
[17] = dose: 400.0 mg/kg/injection, schedule: Q01DX001 (ip), vehicle: saline
[18] = dose: 400.0 mg/kg/injection, schedule: Q01DX009 (ip), vehicle: saline with Tween-80

Measured: T/C

CC(C)(C#N)C(C)(C)C#N
inactive: dose: 1.56 mg/kg/injection, schedule: Q04DX003 (ip), vehicle: saline with Tween-80 103 % of control | dose: 3.13 mg/kg/injection, schedule: Q04DX003 (ip), vehicle: saline with Tween-80 92 % of control | dose: 6.25 mg/kg/injection, schedule: Q04DX003 (ip), vehicle: saline with Tween-80 93 % of control and 92 % of control

CCCCNC(=O)NNC(=O)CCCC(=O)NNC(=O)NCCCC
inactive: dose: 50.0 mg/kg/injection, schedule: Q01DX001 (ip), vehicle: saline 100 % of control | [1] 93 % of control | [2] 100 % of control

CC1C(O)CC2CC1C2(C)C (stereo unspecified)
inactive: dose: 50.0 mg/kg/injection, schedule: Q01DX001 (ip), vehicle: saline with Tween-80 94 % of control | dose: 100.0 mg/kg/injection, schedule: Q01DX001 (ip), vehicle: saline with Tween-80 93 % of control | dose: 200.0 mg/kg/injection, schedule: Q01DX001 (ip), vehicle: saline with Tween-80 102 % of control

O=C1O/C(=C\c2ccccc2)c2c(Br)c(Br)c(Br)c(Br)c21
inactive: [3] 94 % of control | [4] 91 % of control | [5] 96 % of control

Cc1ccc(Nc2nc(N)nc(N)c2N)cc1
inactive: dose: 6.0 mg/kg/injection, schedule: Q01DX Z (ip), vehicle: saline 95 % of control | dose: 12.0 mg/kg/injection, schedule: Q01DX Z (ip), vehicle: saline 97 % of control

CCOC(=O)c1c(NC(=O)C(F)(F)F)[nH]c(SSc2[nH]c(NC(=O)C(F)(F)F)c(C(=O)OCC)c2C(=O)OCC)c1C(=O)OCC
inactive: [6] 97 % of control | [7] 102 % of control | [8] 97 % of control | [9] 105 % of control | [10] 86 % of control

CCCCCOc1ccc(C2=C(c3ccccc3)C(=O)C(c3ccccc3)=C2c2ccccc2)cc1
inactive: [3] 100 % of control | [4] 100 % of control | [5] 94 % of control

Nn1cnnc1N/N=C/c1ccccc1Cl
inactive: dose: 50.0 mg/kg/injection, schedule: Q01DX001 (ip), vehicle: carboxymethylcellulose (CMC) 94 % of control | [3] 96 % of control | [4] 94 % of control | [5] 90 % of control

CC(=O)Nc1cc2cc(Br)ccc2oc1=O
inactive: [11] 95 % of control | [12] 93 % of control

CC1CC(C)(C)N=C(CCCO)O1 (stereo unspecified)
inactive: [13] 104 % of control | [14] 96 % of control | [15] 104 % of control | dose: 400.0 mg/kg/injection, schedule: Q04DX002 (ip), vehicle: saline with Tween-80 100 % of control

COc1cccc(/C=N\NC(=O)CNC(=O)Nc2ccc(Cl)c(Cl)c2)c1OC
inactive: [7] 93 % of control | [8] 93 % of control | [16] 86 % of control

CCOC(=O)/C(=C\c1ccccc1)C(=O)c1ccccc1
inactive: [1] 97 % of control | dose: 100.0 mg/kg/injection, schedule: Q04DX003 (ip), vehicle: saline 97 % of control | [2] 93 % of control | dose: 200.0 mg/kg/injection, schedule: Q04DX003 (ip), vehicle: saline 92 % of control | [17] 88 % of control | dose: 400.0 mg/kg/injection, schedule: Q04DX003 (ip), vehicle: saline 101 % of control

O=C(N/N=C\c1cc(=O)[nH]c(=O)[nH]1)c1ccccc1
inactive: [1] 100 % of control

c1ccc2n[nH]nc2c1
inactive: [13] 95 % of control | [14] 106 % of control | [15] 98 % of control

C1CCCCCC(NC2=NCCO2)CCCCC1
inactive: dose: 25.0 mg/kg/injection, schedule: Q04DX003 (ip), vehicle: saline with Tween-80 97 % of control | dose: 50.0 mg/kg/injection, schedule: Q04DX003 (ip), vehicle: saline with Tween-80 102 % of control | [9] 88 % of control

Nc1ccc([N+](=O)[O-])cc1N=C/C=C/c1ccccc1
inactive: dose: 50.0 mg/kg/injection, schedule: Q01DX009 (ip), vehicle: Klucel (hydroxypropylcellulose) (HPC) 101 % of control | [11] 96 % of control | [12] 92 % of control

COc1ccc(Cc2ccc3c(C)cc(Cl)nc3c2)cc1
inactive: [1] 98 % of control | [2] 103 % of control | [17] 108 % of control

Cc1cc(N(C)C)cc(C)c1C(=Nc1ccc(N=C(NO)c2c(C)cc(N(C)C)cc2C)cc1)NO
inactive: [1] 97 % of control | [2] 109 % of control

Cc1cc(=O)oc2cc(OC(=O)Nc3ccc(Cl)cc3C(F)(F)F)ccc12
inactive: [8] 97 % of control | [16] 97 % of control | [18] 92 % of control

C/C(=C\Cl)CO
inactive: [9] 97 % of control | [10] 95 % of control

CCOC(=O)CNc1ccc(F)c(C(F)(F)F)c1
inactive: dose: 100.0 mg/kg/injection, schedule: Q04DX002 (ip), vehicle: saline 95 % of control and 107 % of control | dose: 200.0 mg/kg/injection, schedule: Q04DX002 (ip), vehicle: saline 103 % of control and 92 % of control | dose: 400.0 mg/kg/injection, schedule: Q04DX002 (ip), vehicle: saline 110 % of control | dose: 600.0 mg/kg/injection, schedule: Q04DX002 (ip), vehicle: saline 95 % of control

COC(=O)C(Br)c1ccc([N+](=O)[O-])cc1 (stereo unspecified)
inactive: dose: 12.5 mg/kg/injection, schedule: Q01DX009 (ip), vehicle: saline with Tween-80 101 % of control | dose: 12.5 mg/kg/injection, schedule: Q04DX003 (ip), vehicle: saline 98 % of control | [6] 104 % of control | dose: 25.0 mg/kg/injection, schedule: Q04DX003 (ip), vehicle: saline 101 % of control | dose: 50.0 mg/kg/injection, schedule: Q04DX003 (ip), vehicle: saline 93 % of control

O=c1cc(CC(O)(c2ccccc2)c2ccccc2)cc[nH]1
inactive: [1] 100 % of control | [2] 95 % of control | [17] 100 % of control

N#CC(C#N)=C1CCCc2sccc21
inactive: [1] 90 % of control | [2] 95 % of control | [17] 92 % of control

CC(=O)C1=CCCCC1
inactive: dose: 100.0 mg/kg/injection, schedule: Q04DX003 (ip), vehicle: Klucel (hydroxypropylcellulose) (HPC) 96 % of control | dose: 200.0 mg/kg/injection, schedule: Q04DX003 (ip), vehicle: Klucel (hydroxypropylcellulose) (HPC) 105 % of control | dose: 400.0 mg/kg/injection, schedule: Q04DX003 (ip), vehicle: Klucel (hydroxypropylcellulose) (HPC) 93 % of control

CC/S(=N\S(=O)(=O)c1ccc(C)cc1)c1ccccc1 (stereo unspecified)
inactive: [8] 108 % of control | [16] 100 % of control | [18] 100 % of control

C/C=C/SC(=Nc1ccccc1)Nc1ccccc1
inactive: dose: 100.0 mg/kg/injection, schedule: Q01DX001 (ip), vehicle: Klucel (hydroxypropylcellulose) (HPC) 96 % of control | dose: 200.0 mg/kg/injection, schedule: Q01DX001 (ip), vehicle: Klucel (hydroxypropylcellulose) (HPC) 94 % of control | dose: 400.0 mg/kg/injection, schedule: Q01DX001 (ip), vehicle: Klucel (hydroxypropylcellulose) (HPC) 98 % of control

CN(C)CCNC(=O)CN
inactive: [1] 102 % of control | [2] 107 % of control | [17] 107 % of control

O=C(O)COc1cc(Cl)cc(Cl)c1
inactive: dose: 50.0 mg/kg/injection, schedule: Q04DX002 (ip), vehicle: other 91 % of control | dose: 100.0 mg/kg/injection, schedule: Q04DX002 (ip), vehicle: other 94 % of control | dose: 200.0 mg/kg/injection, schedule: Q04DX002 (ip), vehicle: other 108 % of control
